# Results taken from patent US20060211673A1, “Modulation of neurodegenerative diseases through the estrogen receptor” (ALSGEN, LLC, priority 2005, published 2006).
# Columns and labels:
# SOD-1 protein = assay: SOD-1 ELISA on lysates of HeLa cells after 72 hours of incubation with drug; type: cell-based, human
# Method: Briefly, cells were maintained in Dulbecco's Minimal Essential Medium, with high glucose, supplemented with glutamine, 4 mM, certified fetal bovine serum, 10%, and penicillin, streptomycin, and nystatin (all from Invitrogen). Incubation conditions were 37 degrees and 99% relative humidity, with CO2 at 5%. Cultures were passaged when they reached 90% confluence. For pharmacological experiments, cells were plated into sterile tissue culture treated 96 well plates at a density of 3,500 cells/well in 150 μl medium. After plating and 6 hours for attachment, drugs were added to the medium in a concentration of 10 μM. Following 72 hours of incubation with the drugs, the cells were photographed at 100× using an inverted microscope and digital camera, so that cytotoxicity could be evaluated. After photodocumentation, the medium was removed and the cells were washed once with phosphate buffered saline, and then 50 μl molecular biology grade water containing a protease inhibitor cocktail was added. After 10 min incubation, the plates were placed in −80 degrees to induce complete lysis. Plates were then thawed and 25 μl was transferred from each well into a maxsorp ELISA plate coated with anti-human SOD-1 antibody, which contained 75 μl phosphate buffered saline. A second antibody pair (a polyclonal anti-SOD-1/HRP conjugated goat anti-rabbit) was then added to the well, and incubation was conducted for 1 hour at room temperature. At the conclusion of the incubation, the plate was washed three times (wash buffer from KPL Inc.) and Sure Blue Reserve HRP Substrate was added. […] The plate was then shaken gently for 5 seconds and the absorbance at 450 mn read on a Tecan Plate reader. Absorbance from each sample were compared to standard curve of purified recombinant human SOD-1 assayed on the same ELISA plate, and SOD-1 immunoreactivity (ng/ml) was estimated by comparison with the standard curve. […] The total protein of the lysates was determined by Bradford assay as described in Example 1 (iv). […]
# HeLa cells = assay: Bradford total protein assay of HeLa lysates (check for cytotoxic effects); type: cell-based, human; conditions: 72 hours
# Method: To determine if decrements found in the SOD-1 assay were simply the result of cytotoxic effects of the drug treatment, total protein was determined for each well. While the ELISA incubation was ongoing, 10 μl of the remaining lysate was removed from each well and placed into another empty plate, and BioRad Bradford reagent (100 μl) was added to the protein. After a 15 min incubation at room temperature the plate was shaken gently for 5 seconds and the absorbance was read at 595 nm in a Tecan Sunrise plate reader. Protein concentrations in each well were thus determined by comparison with protein standards that were run on the same plate.
# Following 72 hours of incubation with the drugs, the cells were photographed and processed as described in Example 1 (iii). The total protein of the lysates was determined by Bradford assay as described in Example 1 (iv). […] This reduction was dose related and maximal by 3 μM, with an IC50 of 2 μM.
# SOD-1 mRNA = SOD-1 mRNA by RT-PCR in blood of the SOD-93A murine model for ALS; type: in vivo; conditions: SOD-93A mice, ip 1 or 10 mg/kg for 14 days, lymphocyte/blood samples, p<0.05, FIG. 2
# Method: The effects of the estrogen receptor modulating agent (e.g., Estradiol), and analogs thereof described in Examples 2 were tested in vivo in the SOD-93A murine model for ALS, and a reduction in SOD-1 levels was measured. The inhibition of RNA expression was monitored by isolated blood samples from a mouse pre- and post introduction of the compound (estradiol benzoate) using standard RT-PCR techniques. The expression of the SOD-1 protein was determined using Western blot techniques with an anti-SOD-1 antibody from Sigma. […] The results are shown as a % of internal control, 18S rRNA.
structure (smiles),measurement,setting,value
C[C@]12CC[C@@H]3c4ccc(O)cc4CC[C@H]3[C@@H]1CC[C@@H]2O [Estradiol],concentration at which reduction of SOD-1 protein is maximal,"SOD-1 protein; 72 hours, dose related",≤ 3 µM
same,IC50,"SOD-1 protein; drug added to culture medium 72 hours before harvest, read-out: IC50 of reduction of SOD-1 protein levels",2 µM
same,total protein levels,HeLa cells,unaffected
C[C@]12CC[C@@H]3c4ccc(OC(=O)c5ccccc5)cc4CC[C@H]3[C@@H]1CC[C@@H]2O [estradiol benzoate],"SOD-1 mRNA (% of internal control, 18S rRNA)",SOD-1 mRNA,decreased
CCCCC(=O)O[C@H]1CC[C@H]2[C@@H]3CCc4cc(O)ccc4[C@H]3CC[C@]12C [estradiol valerate],levels of SOD-1 protein,"SOD-1 protein; 72 hours, FIG. 1",reduction
